Tests used:
hPITO35 = conditions: organoid 35; compared to Cabergoline
Protocol: (§1) Organoids were grown in Matrigel™ domes within 96-well round-bottom culture plates. Recombinant human SHH was removed from the pituitary organoid growth media, 24 hrs. prior to drug treatment. Organoids were treated with either vehicle (DMSO), cabergoline (Selleckchem S5842), ketoconazole (Selleckchem S1353), roscovitine (Selleckchem S1153), GANT61 (Stemcell Technologies 73692), pasireotide (TargetMol TP2207), mifeprostone (Selleckchem S2606), etomidate (Selleckchem S1329), mitotane (Selleckchem S1732), metyropane (Selleckchem S5416), or osilodrostat (Selleckchem S7456) at concentrations of 0, 1, 10, 100, 1000, and 10000 nM for 72 hours. Percent cell viability was measured using an MTS assay (Promega G3580). Absorbance was measured at 490 nm and normalized to the vehicle. Concentrations were plotted in a logarithmic scale, and a nonlinear dose-response curve regression was calculated using GraphPad Prism. An IC50 value for each drug treatment was determined based on the dose response curve using GraphPad Prism analysis software.

iPSC^ctrl organoids [1] = assay: ACTH secretion ELISA of conditioned media; assay type: cell-based, human; conditions: 100 nM with Mife 500 nM
Protocol: (§2) Concentration of secreted ACTH in conditioned media that was collected from organoid cultures was measured using the Human ACTH ELISA Kit (Novus Biologicals, NBP2-66401) according to the manufacturer's protocol. The enzyme-substrate reaction was measured spectrophotometrically (BioTek Gen5 Micro Plate Reader Version 3.11) at a wavelength of 450 nm and the ACTH concentration (pg/mL) was interpolated using a standard curve with a 4-parameter logistic regression analysis using GraphPad Prism (Version 9.2.0).

iPSC^USP48MV organoids [2] = assay: ACTH secretion ELISA of conditioned media; assay type: cell-based, human; conditions: 100 nM with Mife 500 nM
Protocol: as §2

iPSC^ctrl organoids [3] = assay: Proliferation by EdU uptake; assay type: cell-based, human; conditions: 100 nM
Protocol: (§3) Organoids were immunostained using published protocols by our laboratory. Proliferation was measured by using 5-ethynyl-2'-deoxyuridine (EdU) incorporation according to the Manufacturer's protocol (Click-IT EdU Alexa Fluor 555 Imaging Kit, Thermo Fisher Scientific C10338). Costaining was performed by blocking fixed organoids with 2% donkey serum (Jackson Immuno Research, #017-000-121) diluted in 0.01% PBST for 1 hr. at room temperature. Organoids were then incubated overnight at 4° C. with primary antibodies followed by secondary antibodies and Hoechst (Thermo Fisher Scientific H1399, 1:1000 in 0.01% PBST) for 1 hr at room temperature. Human specific primary antibodies used included: rabbit anti-ACTH (Thermo Fisher Scientific 701293, 1:250), rabbit anti-Synaptophysin (Thermo Fisher Scientific PA5-27286, 1:100), […] (Thermo Fisher Scientific PA5-98650, 1:50), rabbit anti-LH (Thermo Fisher Scientific PA5-102674, 1:100), mouse anti-FSH (Thermo Fisher Scientific MIF2709, 1:100), mouse anti-PRL (Thermo Fisher Scientific CF500720, 1:100), Alexa Flour conjugated GH (NB500-364AF647, 1:100) and mouse anti-CAM5.2 (SIGMA […]-95, 1:250). The secondary antibodies used included Alexa Fluor 488 Donkey Anti Rabbit IgG (H+L) (Thermo Fisher Scientific A21206, 1:100) or Alexa Fluor 647 Donkey Anti Mouse IgG (H+L) (Thermo Fisher Scientific A31571, 1:100). Organoids were visualized and images acquired by confocal microscopy using the Nikon CrestV2 Spinning Disk. Fluorescence intensity and percentage of EdU positive cells of total cells, were calculated using Nikon Elements Software (Version 5.21.05).

iPSC^USP48MV organoids [4] = assay: Proliferation by EdU uptake; assay type: cell-based, human; conditions: 100 nM
Protocol: as §3

[5] = tested on: hPITOs generated from CD patients; assay: High-throughput drug screen, MTS assay; assay type: cell-based, human; conditions: 1 uM, 72 hrs
Protocol: Patient adenoma-derived pituitary organoids were grown in 96-well plates and treated with 147 small molecules taken from the NCI AOD9 compound library for 72 hrs. (https://dtp.cancer.gov/organization/dscb/obtaining/available_plates.html). Drugs were diluted from 10 mM DMSO stock plates into 100 uM DMSO working stocks with a final concentration of 1 uM. All vehicle controls were treated with 0.1% DMSO. Organoid proliferation was measured using CellTiter 96® AQueous One Solution Cell Proliferation Assay kit (MTS, Promega, G3582) according to the manufacturer's instruction. Organoid death was calculated based on the absorbance readings at 490 nm, collected from the MTS assay relative to the vehicle controls. Drug screens were performed with biological replicates in same screen. Drugs were selected based on their ability to target key signaling pathways and clinical relevance to the treatment. Drug sensitivity is represented by cell viability and is significant at <0.5 suppressive effect of the drugs. The percent cell viability relative to the vehicle control was calculated. Correlation coefficient across each organoid were calculated using Pearson method to assess confidence in replication. Variance Component was detected for each drug across all organoids. A random effect model was run with a single random factor for each drug and estimated variance was calculated by rejecting the null hypothesis that there isn't variation among samples. The drug responses were grouped by variance factor large (vc>100), median (100>vc>50), and small (vc<50). Heatmap was used to display the differential responses in cell viability for the drugs.
Tumor recurrence can occur in as many as 30-50% of CD patients after successful surgical treatment. Unfortunately, bilateral adrenalectomy is the chosen surgical treatment for patients with persistent CD [35]. Bilateral adrenalectomy leads to the increased risk for development of Nelson's syndrome (progressive hyperpigmentation due to ACTH secretion and expansion of the residual pituitary tumor). Although the risk of developing Nelson's syndrome following adrenalectomy can be reduced by 50% with stereotactic radiotherapy, there is a need to develop medical therapies that directly target the pituitary adenoma. Thus, we established a high-throughput drug screening assay using patient-derived pituitary organoids. […] The replicates behaved consistently with the drug response with the correlation scores of >0.8 for these samples (FIG. 3a). We estimated the variance component for each drug across all organoids. […] The drug responses were grouped by variance factor large, median, and small. The larger the variance the more variable is the drug response across the organoids. […]

hPITO34 = conditions: organoid 34; compared to Metyrapone and osilodrostat
Protocol: as §1

hPITO33 = assay: Drug dose response, MTS cell viability assay; assay type: cell-based, human; conditions: organoid 33; compared to Metyrapone and osilodrostat
[6] = tested on: transcriptional regulation of POMC by Gli1; assay: Gene ChIP assay in hPITO cultures expressing USP8 and USP48 mutations; assay type: cell-based, human
SSTR2 = assay: Differential expression of SSTR2 in iPSC generated pituitary tumor organoids; assay type: cell-based, human; conditions: for effect on relacorilant stimulated SSTR2: iPSC organoids; for effect of pretreatment on Mifepristone-induced SSTR2 expression / differential expression of SSTR2: iPSC^ctrl organoids; for effect of pretreatment on Mifepristone-induced SSTR2 expression: GANT 5 uM, Keto 10 uM; for differential expression of SSTR2: drug alone (Mife 500 nM, GANT 5 uM, Keto 10 uM, Dexa 100 nM)
SSTR5 = assay: Differential expression of SSTR5 in iPSC generated pituitary tumor organoids; assay type: cell-based, human; conditions: for effect on relacorilant stimulated SSTR5: iPSC organoids; for effect of pretreatment on Mifepristone-induced SSTR5 expression / differential expression of SSTR5: iPSC^ctrl organoids; for effect of pretreatment on Mifepristone-induced SSTR5 expression: GANT 5 uM, Keto 10 uM; for differential expression of SSTR5: drug alone (Mife 500 nM, GANT 5 uM, Keto 10 uM, Dexa 100 nM)

Row | SMILES | Dose response (cell viability) (hPITO35) | effect on relacorilant stimulated SSTR2 (SSTR2) | effect of pretreatment on Mifepristone-induced SSTR2 expression (SSTR2) | differential expression of SSTR2 (SSTR2) | effect on relacorilant stimulated SSTR5 (SSTR5) | effect of pretreatment on Mifepristone-induced SSTR5 expression (SSTR5) | differential expression of SSTR5 (SSTR5) | further results
1 | N#Cc1ccc([C@H]2CCc3cncn32)c(F)c1 [osilodrostat] | better responses than Cabergoline | – | – | – | – | – | – | –
2 | C[C@@H](O)[C@@H]1NC(=O)[C@H](CCCCN)NC(=O)[C@@H](Cc2c[nH]c3ccccc23)NC(=O)[C@H](Cc2ccccc2)NC(=O)[C@@H](NC(=O)[C@H](N)Cc2ccccc2)CSSC[C@@H](C(=O)N[C@H](CO)[C@@H](C)O)NC1=O [Octreotide] | – | – | – | – | – | – | – | effect on ACTH secretion in response to Mifepristone (iPSC^ctrl organoids [1]): significantly reduced; effect on ACTH secretion in response to Mifepristone (iPSC^USP48MV organoids [2]): significantly reduced; effect of pretreatment on the proliferative response to Mife (iPSC^ctrl organoids [3]): inhibited; effect of pretreatment on the proliferative response to Mife (iPSC^USP48MV organoids [4]): inhibited
3 | C=CCN1C[C@H](C(=O)N(CCCN(C)C)C(=O)NCC)C[C@@H]2c3cccc4[nH]cc(c34)C[C@H]21 [cabergoline] | – | – | – | – | – | – | – | response of the adenoma cells within the organoids ([5]; hPITO7, 10 and 25): ~0%; response of the adenoma cells within the organoids ([5]; hPITO34 and hPITO35): 50%; Dose response (cell viability) (hPITO34): better response at lower dose; Dose response (cell viability) (hPITO33): better response at lower dose
4 | CC(C)(C(=O)c1cccnc1)c1cccnc1 [Metyrapone] | better responses than Cabergoline | – | – | – | – | – | – | –
5 | CN(C)c1ccccc1CN1CCCN(Cc2ccccc2N(C)C)C1c1ccncc1 [GANT61] | – | inhibited | reduced | no effect | inhibited | reduced | no effect | transcriptional regulation of POMC by Gli1 (ChIP) [6]: blocked
6 | CC(=O)N1CCN(c2ccc(OCC3COC(Cn4ccnc4)(c4ccc(Cl)cc4Cl)O3)cc2)CC1 (centres unmarked) [ketoconazole] | – | failed to block | no effect | no effect | failed to block | no effect | no effect | –

Reference: patent US20250163387A1, “HUMAN PITUITARY NEUROENDOCRINE TUMOR ORGANOIDS AND METHODS OF MAKING AND USING THE SAME” (ARIZONA BOARD OF REGENTS OF THE UNIVERSITY OF ARIZONA, A …, priority 2022, published 2025)
